The record followed here is ChEMBL document CHEMBL5696442, “Discovery of type II inhibitors of TGFβ-activated kinase 1 (TAK1) and mitogen-activated protein kinase kinase kinase kinase 2 (MAP4K2)” (J Med Chem, 2015).

Active and inactive are the calls of the source. The rule behind the calls is not given here.

Assay [1] has as its target Serine/threonine-protein kinase 4 (Homo sapiens) (UniProt Q13043). Description: Inhibition of MST1 Lys2 labeling site harbouring DIKAGNILLNTEGHAK in human Huh-7 cell lysate at 1 uM by KiNativ Profiling analysis relative to control.
The target in assay [2] is Tyrosine-protein kinase CSK (Homo sapiens, UniProt P41240). Description: Inhibition of CSK (unknown origin) at 1 uM by Ambit Kinomescan binding assay relative to control.
The target in assay [3] is Macrophage-stimulating protein receptor (Homo sapiens) (UniProt Q04912). The assay is described as follows: Inhibition of MST1R (unknown origin) at 1 uM by Ambit Kinomescan binding assay relative to control.
Assay [4] deals with cGMP-dependent protein kinase 2 (Homo sapiens) (UniProt Q13237). The assay is described as follows: Inhibition of PRKG2 (unknown origin) at 1 uM by Ambit Kinomescan binding assay relative to control.
Assay [5] deals with Serine/threonine-protein kinase 10 (Homo sapiens) (UniProt O94804). The assay is described as follows: Inhibition of LOK Lys2 labeling site in human A-375 cells at 5 uM by KiNativ Profiling analysis relative to control. The assay is classed as cell-based.
Assay [6] addresses Serine/threonine-protein kinase MARK1 (Homo sapiens) (UniProt Q9P0L2). Description: Inhibition of MARK1 Lys2 labeling site in human A-375 cells at 0.5 uM by KiNativ Profiling analysis relative to control. The assay is classed as cell-based.
Assay [7] concerns the target Maternal embryonic leucine zipper kinase (Homo sapiens) (UniProt Q14680). The assay is described as follows: Inhibition of MELK Lys2 labeling site in human A-375 cells at 0.5 uM by KiNativ Profiling analysis relative to control. The assay is classed as cell-based.
For assay [8], the target named is Tyrosine-protein kinase Tec (Homo sapiens) (UniProt P42680). Description: Inhibition of TEC (unknown origin) at 1 uM by Ambit Kinomescan binding assay relative to control.
Assay [9] has as its target Ephrin type-B receptor 3 (Homo sapiens) (UniProt P54753). The assay is described as follows: Inhibition of EPHB3 (unknown origin) at 1 uM by Ambit Kinomescan binding assay relative to control; values are per cent of control.
Assay [10] deals with Myosin light chain kinase 2, skeletal/cardiac muscle (Homo sapiens) (UniProt Q9H1R3). Description: Inhibition of MYLK2 (unknown origin) at 10 uM by Ambit Kinomescan binding assay relative to control.
Assay [11] addresses cGMP-dependent protein kinase 2 (Homo sapiens) (UniProt Q13237). The assay is described as follows: Inhibition of PRKG2 (unknown origin) at 10 uM by Ambit Kinomescan binding assay.
Assay [12] addresses T1, Eukaryotic elongation factor 2 kinase (Homo sapiens) (UniProt O00418).
T1 sequence (whole entry): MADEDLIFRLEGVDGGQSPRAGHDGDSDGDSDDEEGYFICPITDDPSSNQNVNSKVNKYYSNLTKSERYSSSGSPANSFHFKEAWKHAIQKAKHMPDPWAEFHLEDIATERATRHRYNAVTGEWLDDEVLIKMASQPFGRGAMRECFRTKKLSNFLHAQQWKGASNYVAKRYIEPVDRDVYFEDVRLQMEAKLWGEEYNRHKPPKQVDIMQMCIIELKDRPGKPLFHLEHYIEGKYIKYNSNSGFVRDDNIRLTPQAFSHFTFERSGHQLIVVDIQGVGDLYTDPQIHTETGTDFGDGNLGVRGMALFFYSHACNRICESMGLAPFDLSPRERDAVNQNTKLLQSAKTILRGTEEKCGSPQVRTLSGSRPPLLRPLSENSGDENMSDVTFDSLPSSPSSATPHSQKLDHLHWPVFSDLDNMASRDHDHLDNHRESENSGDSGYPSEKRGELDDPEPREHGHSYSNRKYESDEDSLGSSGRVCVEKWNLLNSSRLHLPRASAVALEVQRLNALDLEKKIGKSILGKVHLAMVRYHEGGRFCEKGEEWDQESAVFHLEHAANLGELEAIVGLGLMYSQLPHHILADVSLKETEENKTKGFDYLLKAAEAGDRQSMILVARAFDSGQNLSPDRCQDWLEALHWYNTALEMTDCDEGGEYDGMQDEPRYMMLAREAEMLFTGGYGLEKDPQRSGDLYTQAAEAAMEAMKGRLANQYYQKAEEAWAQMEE
The assay is described as follows: Inhibition of eEF2K ATP labeling site harbouring YIKYNSNSGFVR in human A-375 cells at 5 uM by KiNativ Profiling analysis relative to control. The assay is classed as cell-based.

Assay [13] has as its target T2, Scaffold protein ILK (Homo sapiens) (UniProt Q13418).
T2 sequence (whole entry): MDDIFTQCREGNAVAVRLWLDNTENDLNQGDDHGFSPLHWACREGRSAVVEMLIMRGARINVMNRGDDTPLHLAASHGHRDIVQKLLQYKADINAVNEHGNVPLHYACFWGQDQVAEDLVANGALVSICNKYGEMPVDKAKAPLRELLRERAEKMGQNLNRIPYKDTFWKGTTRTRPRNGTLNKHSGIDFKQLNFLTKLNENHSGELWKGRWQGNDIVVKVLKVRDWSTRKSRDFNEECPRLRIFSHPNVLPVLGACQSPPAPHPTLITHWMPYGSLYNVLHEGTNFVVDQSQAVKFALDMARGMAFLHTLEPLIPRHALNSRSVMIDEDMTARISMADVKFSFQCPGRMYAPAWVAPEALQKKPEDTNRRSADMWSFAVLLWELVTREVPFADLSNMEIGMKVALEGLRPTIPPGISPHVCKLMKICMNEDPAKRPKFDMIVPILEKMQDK
The assay is described as follows: Inhibition of ILK Protein Kinase Domain in human A-375 cells at 0.5 uM by KiNativ Profiling analysis relative to control. The assay is classed as cell-based.

The target in assay [14] is Serine/threonine-protein kinase 25 (Homo sapiens) (UniProt O00506). Description: Inhibition of YSK1 ATP labeling site in human Huh-7 cells at 1 uM by KiNativ Profiling analysis relative to control. Format: cell-based.
Chain of Serine/threonine-protein kinase 25 (Homo sapiens) (O00506 whole entry, looked up): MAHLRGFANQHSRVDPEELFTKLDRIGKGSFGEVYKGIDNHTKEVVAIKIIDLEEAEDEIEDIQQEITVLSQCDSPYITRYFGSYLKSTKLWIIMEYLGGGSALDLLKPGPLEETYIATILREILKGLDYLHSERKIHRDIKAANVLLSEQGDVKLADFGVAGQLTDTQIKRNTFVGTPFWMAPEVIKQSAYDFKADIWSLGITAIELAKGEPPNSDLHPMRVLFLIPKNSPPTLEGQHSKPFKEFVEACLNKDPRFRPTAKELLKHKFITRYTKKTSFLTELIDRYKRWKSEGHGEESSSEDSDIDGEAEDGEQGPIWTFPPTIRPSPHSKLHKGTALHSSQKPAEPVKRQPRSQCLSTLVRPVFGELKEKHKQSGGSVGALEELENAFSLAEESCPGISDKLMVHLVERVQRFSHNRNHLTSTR

Chain of cGMP-dependent protein kinase 2 (Homo sapiens) (Q13237 whole entry): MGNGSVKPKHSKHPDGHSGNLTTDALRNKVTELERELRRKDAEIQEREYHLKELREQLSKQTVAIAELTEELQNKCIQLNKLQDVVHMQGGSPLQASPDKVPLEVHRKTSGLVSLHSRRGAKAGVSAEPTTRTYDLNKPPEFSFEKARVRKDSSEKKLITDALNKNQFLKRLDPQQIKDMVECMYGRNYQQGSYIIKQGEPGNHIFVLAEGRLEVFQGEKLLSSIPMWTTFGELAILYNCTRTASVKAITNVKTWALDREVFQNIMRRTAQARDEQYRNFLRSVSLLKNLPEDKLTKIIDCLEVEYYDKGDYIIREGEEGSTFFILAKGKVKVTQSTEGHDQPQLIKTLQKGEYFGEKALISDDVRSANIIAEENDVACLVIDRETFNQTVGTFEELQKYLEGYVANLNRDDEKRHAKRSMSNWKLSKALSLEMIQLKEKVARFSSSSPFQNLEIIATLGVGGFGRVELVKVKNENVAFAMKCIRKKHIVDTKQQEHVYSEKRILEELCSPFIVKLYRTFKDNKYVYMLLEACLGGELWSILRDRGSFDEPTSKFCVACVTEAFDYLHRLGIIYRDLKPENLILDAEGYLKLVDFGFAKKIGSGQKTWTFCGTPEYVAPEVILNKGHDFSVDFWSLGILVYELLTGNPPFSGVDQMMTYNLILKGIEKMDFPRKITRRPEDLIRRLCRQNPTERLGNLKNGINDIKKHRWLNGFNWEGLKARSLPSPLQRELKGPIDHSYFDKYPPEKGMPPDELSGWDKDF
Chain of Ephrin type-B receptor 3 (Homo sapiens) (P54753 whole entry): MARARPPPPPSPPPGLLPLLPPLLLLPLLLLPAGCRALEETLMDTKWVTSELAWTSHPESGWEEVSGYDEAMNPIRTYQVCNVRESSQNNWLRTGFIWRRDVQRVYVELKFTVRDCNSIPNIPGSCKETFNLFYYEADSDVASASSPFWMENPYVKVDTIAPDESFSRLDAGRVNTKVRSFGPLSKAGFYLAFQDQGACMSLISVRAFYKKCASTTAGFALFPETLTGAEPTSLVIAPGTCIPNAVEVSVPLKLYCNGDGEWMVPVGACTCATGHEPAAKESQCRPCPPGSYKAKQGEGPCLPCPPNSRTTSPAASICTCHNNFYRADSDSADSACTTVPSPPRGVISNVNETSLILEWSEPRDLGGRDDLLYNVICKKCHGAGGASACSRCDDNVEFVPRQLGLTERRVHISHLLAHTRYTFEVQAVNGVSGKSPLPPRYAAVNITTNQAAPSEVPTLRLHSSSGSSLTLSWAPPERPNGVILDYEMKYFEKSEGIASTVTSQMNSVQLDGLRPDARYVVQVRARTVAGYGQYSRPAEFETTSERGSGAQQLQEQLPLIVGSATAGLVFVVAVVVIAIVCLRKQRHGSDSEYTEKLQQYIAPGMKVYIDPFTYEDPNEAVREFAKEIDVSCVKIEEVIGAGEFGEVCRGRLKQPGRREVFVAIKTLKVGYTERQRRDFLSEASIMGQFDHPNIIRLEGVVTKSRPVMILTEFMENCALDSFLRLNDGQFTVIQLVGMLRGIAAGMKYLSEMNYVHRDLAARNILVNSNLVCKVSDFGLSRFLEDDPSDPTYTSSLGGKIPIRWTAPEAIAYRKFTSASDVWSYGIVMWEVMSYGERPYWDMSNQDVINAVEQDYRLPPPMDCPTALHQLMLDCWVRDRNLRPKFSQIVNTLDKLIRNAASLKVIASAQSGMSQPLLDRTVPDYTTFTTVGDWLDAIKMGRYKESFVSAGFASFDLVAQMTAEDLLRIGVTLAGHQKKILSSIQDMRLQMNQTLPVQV
Chain of Myosin light chain kinase 2, skeletal/cardiac muscle (Homo sapiens) (Q9H1R3 whole entry): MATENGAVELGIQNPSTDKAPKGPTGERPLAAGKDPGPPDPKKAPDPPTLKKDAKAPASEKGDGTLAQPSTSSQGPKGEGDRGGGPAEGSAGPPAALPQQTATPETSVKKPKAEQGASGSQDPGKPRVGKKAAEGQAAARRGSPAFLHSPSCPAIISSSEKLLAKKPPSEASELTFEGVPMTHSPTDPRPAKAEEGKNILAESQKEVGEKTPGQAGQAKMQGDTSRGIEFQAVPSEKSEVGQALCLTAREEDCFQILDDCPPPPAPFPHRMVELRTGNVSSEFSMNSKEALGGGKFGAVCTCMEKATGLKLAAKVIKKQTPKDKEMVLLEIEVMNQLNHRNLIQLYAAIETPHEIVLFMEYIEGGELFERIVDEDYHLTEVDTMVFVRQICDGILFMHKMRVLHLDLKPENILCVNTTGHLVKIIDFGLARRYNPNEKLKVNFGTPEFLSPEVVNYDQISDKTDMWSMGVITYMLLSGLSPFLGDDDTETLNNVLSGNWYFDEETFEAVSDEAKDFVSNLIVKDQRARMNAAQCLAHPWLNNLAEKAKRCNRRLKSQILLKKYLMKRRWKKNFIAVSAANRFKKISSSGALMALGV
Chain of Tyrosine-protein kinase Tec (Homo sapiens) (P42680 whole entry, looked up): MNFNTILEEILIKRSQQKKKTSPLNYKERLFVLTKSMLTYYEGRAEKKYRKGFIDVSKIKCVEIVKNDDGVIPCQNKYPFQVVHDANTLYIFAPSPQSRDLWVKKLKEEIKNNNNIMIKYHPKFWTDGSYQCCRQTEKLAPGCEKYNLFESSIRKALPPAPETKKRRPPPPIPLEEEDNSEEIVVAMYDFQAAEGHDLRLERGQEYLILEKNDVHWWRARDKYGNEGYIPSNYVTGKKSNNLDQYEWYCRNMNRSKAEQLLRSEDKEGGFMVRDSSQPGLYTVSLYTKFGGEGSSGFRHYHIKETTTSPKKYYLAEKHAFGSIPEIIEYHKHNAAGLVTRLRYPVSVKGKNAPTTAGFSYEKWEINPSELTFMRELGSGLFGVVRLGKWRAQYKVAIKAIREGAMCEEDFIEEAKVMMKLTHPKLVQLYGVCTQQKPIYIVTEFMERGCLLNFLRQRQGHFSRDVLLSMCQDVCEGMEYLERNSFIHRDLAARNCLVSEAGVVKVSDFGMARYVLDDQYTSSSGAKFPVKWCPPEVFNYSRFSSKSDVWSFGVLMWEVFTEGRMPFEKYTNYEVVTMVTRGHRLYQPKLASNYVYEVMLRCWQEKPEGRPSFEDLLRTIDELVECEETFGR
Chain of Serine/threonine-protein kinase MARK1 (Homo sapiens) (Q9P0L2 whole entry, looked up): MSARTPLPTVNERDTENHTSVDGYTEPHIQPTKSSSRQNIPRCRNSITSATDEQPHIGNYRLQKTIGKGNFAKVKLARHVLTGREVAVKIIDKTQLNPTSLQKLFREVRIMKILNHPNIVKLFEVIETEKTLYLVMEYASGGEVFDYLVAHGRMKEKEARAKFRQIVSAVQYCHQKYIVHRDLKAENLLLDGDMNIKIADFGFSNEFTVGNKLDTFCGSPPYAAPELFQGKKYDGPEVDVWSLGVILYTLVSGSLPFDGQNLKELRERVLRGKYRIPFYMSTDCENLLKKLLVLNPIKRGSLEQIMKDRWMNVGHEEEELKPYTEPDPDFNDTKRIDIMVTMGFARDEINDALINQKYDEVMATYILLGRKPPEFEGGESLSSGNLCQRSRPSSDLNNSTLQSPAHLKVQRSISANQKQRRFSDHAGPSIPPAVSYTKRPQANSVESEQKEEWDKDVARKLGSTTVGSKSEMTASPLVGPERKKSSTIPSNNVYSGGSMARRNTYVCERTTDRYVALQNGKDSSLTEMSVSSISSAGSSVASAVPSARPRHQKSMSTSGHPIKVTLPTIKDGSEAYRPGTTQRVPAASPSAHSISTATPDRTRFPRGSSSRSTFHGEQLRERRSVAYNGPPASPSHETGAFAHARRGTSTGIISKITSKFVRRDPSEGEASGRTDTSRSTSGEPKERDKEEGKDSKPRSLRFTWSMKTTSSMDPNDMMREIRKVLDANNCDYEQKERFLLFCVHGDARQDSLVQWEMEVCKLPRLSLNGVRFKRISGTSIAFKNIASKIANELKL
Chain of Serine/threonine-protein kinase 4 (Homo sapiens) (Q13043 whole entry, looked up): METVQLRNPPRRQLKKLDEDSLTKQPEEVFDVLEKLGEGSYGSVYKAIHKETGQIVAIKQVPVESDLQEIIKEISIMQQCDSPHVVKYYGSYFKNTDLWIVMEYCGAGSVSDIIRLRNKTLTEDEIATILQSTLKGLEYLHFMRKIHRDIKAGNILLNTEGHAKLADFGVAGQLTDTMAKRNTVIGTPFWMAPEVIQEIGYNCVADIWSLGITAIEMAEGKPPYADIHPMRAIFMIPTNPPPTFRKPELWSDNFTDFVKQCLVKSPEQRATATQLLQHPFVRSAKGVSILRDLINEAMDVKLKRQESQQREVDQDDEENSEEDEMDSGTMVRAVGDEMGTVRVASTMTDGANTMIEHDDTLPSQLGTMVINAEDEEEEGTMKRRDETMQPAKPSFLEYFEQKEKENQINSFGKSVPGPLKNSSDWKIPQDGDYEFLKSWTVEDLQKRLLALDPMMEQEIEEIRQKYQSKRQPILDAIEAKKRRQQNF

With `CNc1cc(Oc2cc(C(=O)Nc3cc(N4CCN(C)CC4)cc(C(F)(F)F)c3)ccc2C)ncn1`, the inhibition (in general, the relative decrease from the control value, in per cent) in assay [1] was 8.2%.

For `CCN1CCN(Cc2ccc(NC(=O)c3ccc(C)c(/C=C/c4cnc5[nH]ccc5c4OC)c3)cc2C(F)(F)F)CC1`, the inhibition in assay [2] amounted to 2%; in [3], 81%; in assay [4], 82%; in [5] it was 77.4%; in [6], 2.2%; in [7] it was 1.9%. Moreover, in [8], the inhibition was 16%. For the same compound, in assay [9], the residual activity (as a rule, the activity still measured, relative to the control) came to 63%.

In the case of `CCN1CCN(Cc2ccc(NC(=O)c3ccc(C)c(Oc4ccnc5[nH]ccc45)c3)cc2C(F)(F)F)CC1`, the inhibition in assay [10] was 8.4%; in [12], -2.4%; in assay [13] it was 1.9%; in assay [14], 18%. Further, the inhibition result in assay [11] is “inactive”.
